Publication PMC3766616, “Coniferyl Ferulate, a Strong Inhibitor of Glutathione S-Transferase Isolated from Radix Angelicae sinensis, Reverses Multidrug Resistance and Downregulates P-Glycoprotein” (Evidence-based Complementary and Alternative Medicine : eCAM, 2013)

Biological target: T1, Glutathione S-transferase (mainly GSTP1-1, from human placenta) (Homo sapiens, UniProt P09211)
T1 construct: GST from human placenta (mainly GSTP1-1), Sigma
Test: GSH/CDNB conjugation assay at […] nm; Hanes plot kinetics
Assay type: biochemical

T1 sequence (P09211 2-210): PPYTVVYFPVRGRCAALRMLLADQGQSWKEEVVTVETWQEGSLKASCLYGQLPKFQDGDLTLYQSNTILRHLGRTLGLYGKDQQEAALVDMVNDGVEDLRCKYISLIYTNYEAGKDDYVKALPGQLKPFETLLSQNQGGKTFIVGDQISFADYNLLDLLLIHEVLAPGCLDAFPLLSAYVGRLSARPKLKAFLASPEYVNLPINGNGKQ

COc1cc(/C=C/COC(=O)/C=C/c2ccc(O)c(OC)c2)ccc1O [CF, Coniferyl ferulate]
IC50: 300 nM
